The values below come from US20090088329A1, “MULTICOMPONENT PROTEIN MICROARRAYS” (priority 2002, published 2009).

Assay [1] concerns the target T1, Urease (type IX from Jack Beans) (Canavalia ensiformis, UniProt P07374).
T1 construct: purchased Sigma (St. Louis, Mo.) type IX
Description: biochemical. Format: biochemical. The settings on record: for Km / kcat: Urease/FD; for kcat: pH 5.1; for Ki: 20 mM urea. Here is the method: Preparation of Spotting Solutions: GOx and HRP were dissolved at concentration of 0.4 mg.mL^−1 (250 units.mg^−1) and 0.01 mg.mL^−1 (1000 units.mg^−1), respectively, in 50 mM sodium phosphate buffer, pH 7.4 to form the protein stock solutions. The Amplex Red reagent was made up to a stock concentration of 10 mM. Urease and fluorescein dextran were dissolved at concentrations of 2 mg.mL^−1 (35,400 units.g^−1) and 25 μM, respectively, in 50 mM Tris buffer containing 50 mM NaCl, pH 8 to form their respective stock solutions. GOx/HRP assay samples were prepared to a total volume of 50 μL by mixing 3 μL of each of the GOx and HRP stock solutions, 39 μL of sodium phosphate buffer and 5 μL of the Amplex Red dye solution. Negative and blank control samples were prepared in the same way except that phosphate buffer replaced the missing reagent. Positive control samples contained GOx and HRP as well as 15 μL of 100 μM D-glucose (in buffer) and only 24 μL of buffer. […] Similarly, the blank and positive control samples replaced the missing reagents with Tris buffer while the enzyme selectivity control was obtained by replacing urease with AChE (0.01 mg.mL^−1) in Tris buffer.
Enzyme Assays All enzyme assays and inhibition studies were performed in 96 well plates using a TECAN Safire absorbance/fluorescence platereader operated in fluorescence mode, or on the microarray using time-dependent fluorescence intensity measurements. The enzymatic activity of free and entrapped GOx in 96 well plates was measured by adding 50 μL of a solution containing varying concentrations of glucose to the microtiter well and monitoring of the fluorescence emission at 590 nm for 20 minutes (in solution) or 45 minutes (for entrapped GOx) with excitation at 573 nm. For microarrays, 20 μL of a glucose solution was added to the top of the array, left for 20 seconds and then removed by gently blowing air over the surface, followed by monitoring of fluorescence emission over time. […] Images were acquired before the addition of glucose and then every 30 seconds for 30 minutes after the introduction of glucose using a 30 second integration time per image. For urease, activity and inhibition were measured by adding 100 μL of a solution containing a constant amount of urea (20 mM) in the presence of varying amounts of thiourea (0-100 mM) to the microtiter well and the fluorescence emission of the fluorescein dextran was monitored at 520 nm for 15 minutes (solution) or 45 minutes (entrapped). Microarrays containing urease and fluorescein dextran were first imaged after washing with distilled deionized water (ddH2O, pH 5.1) to provide a constant baseline intensity response. Following this, 20 μL of a urea/thiourea solution was added to the top of the array, which was then covered with a coverslip to minimize solvent evaporation. The emission intensity of fluorescein dextran was measured every 20 seconds for 10 minutes using a 10 second integration time per image following the addition of the urea solution to the array. All samples were tested within 24 hours of being prepared.
For both enzymes studied the initial rate of change in fluorescence intensity was converted to a change in product concentration with time using calibration curves relating the emission intensity of fluorescein to the concentration of ammonium carbonate (for urease) or hydrogen peroxide (for GOx). The Michaelis constants (KM) and catalytic rate constants (kcat) for the enzymes were calculated by generating either double reciprocal (Lineweaver-Burk) plots relating (initial rate of product formation)^−1 to (substrate concentration)^−1 or Hanes-Wolff plots, and fitting these to a linear model. Inhibition constants (KI) for urease were calculated by assessing the changes in the initial rate values for the enzyme in the presence of varying levels of inhibitor, according to the equation: […]

Another assay has as its target urease (Canavalia ensiformis, UniProt P07374). The settings on record: cited from earlier work.
For assay [2], the target named is rhodamine-labelled calmodulin (CaM)/rhodamine-labelled melittin complex (Homo sapiens, UniProt P0DP23). Description: Calmodulin-melittin sol-gel microarray, rhodamine self-quenching fluorescence. Format: binding. The settings on record: for effect on CaM-melittin complex / fluorescence intensity: addition to array, 20:1 molar ratio to CaM for guanidine hydrochloride. An excerpt:
A third system involving protein-peptide interactions consisted of rhodamine-labelled calmodulin (CaM) and rhodamine-labelled mellitin, and was based on a slightly different fluorescence-based screening method utilizing these same biomolecules entrapped in sol-gel derived monoliths. In the absence of antagonists or denaturants (such as guanidine hydrochloride), these two species exist in a complex that brings the two rhodamine labels into close proximity, resulting in self-quenching and thus a low fluorescence signal.
Another example of a sol-gel derived microarray involving a protein-peptide interaction has been developed consisting of rhodamine-labelled calmodulin (CaM) and rhodamine-labelled melittin co-entrapped in a sodium silicate derived sol-gel. In the absence of antagonists, these two species exist in a complex that brings the two rhodamine labels into close proximity, resulting in a self-quenching dimer and thus a low fluorescence signal.
Columns 1 & 5 contain the protein-protein interaction between CaM and Mellitin. Both of which are labelled with rhodamine. Columns 2 & 4 are blank and contain only buffer. Column 3 contains CaM—Rhodamine alone and acts as a positive control. Upon addition of GdHCl (2M) to the top of the array and imaging every 20 s, the CaM-Mel columns increased in fluorescence over 2-fold (Panel B), while the positive control increased slightly initially but reached a relatively low steady-state value quickly (see graph, FIG. 7)

Where [3] appears, read: entrapped enzyme in platereader.

In general, Km refers to the substrate concentration at which the rate is half of its maximum. As a reminder, the kcat is the maximal rate divided by the concentration of active sites. As a reminder, the Ki is a measure of affinity in units of concentration, obtained from inhibition or displacement.

Where a name gives a salt, the structure may show the parent alone.

T1 sequence (P07374 whole entry, looked up): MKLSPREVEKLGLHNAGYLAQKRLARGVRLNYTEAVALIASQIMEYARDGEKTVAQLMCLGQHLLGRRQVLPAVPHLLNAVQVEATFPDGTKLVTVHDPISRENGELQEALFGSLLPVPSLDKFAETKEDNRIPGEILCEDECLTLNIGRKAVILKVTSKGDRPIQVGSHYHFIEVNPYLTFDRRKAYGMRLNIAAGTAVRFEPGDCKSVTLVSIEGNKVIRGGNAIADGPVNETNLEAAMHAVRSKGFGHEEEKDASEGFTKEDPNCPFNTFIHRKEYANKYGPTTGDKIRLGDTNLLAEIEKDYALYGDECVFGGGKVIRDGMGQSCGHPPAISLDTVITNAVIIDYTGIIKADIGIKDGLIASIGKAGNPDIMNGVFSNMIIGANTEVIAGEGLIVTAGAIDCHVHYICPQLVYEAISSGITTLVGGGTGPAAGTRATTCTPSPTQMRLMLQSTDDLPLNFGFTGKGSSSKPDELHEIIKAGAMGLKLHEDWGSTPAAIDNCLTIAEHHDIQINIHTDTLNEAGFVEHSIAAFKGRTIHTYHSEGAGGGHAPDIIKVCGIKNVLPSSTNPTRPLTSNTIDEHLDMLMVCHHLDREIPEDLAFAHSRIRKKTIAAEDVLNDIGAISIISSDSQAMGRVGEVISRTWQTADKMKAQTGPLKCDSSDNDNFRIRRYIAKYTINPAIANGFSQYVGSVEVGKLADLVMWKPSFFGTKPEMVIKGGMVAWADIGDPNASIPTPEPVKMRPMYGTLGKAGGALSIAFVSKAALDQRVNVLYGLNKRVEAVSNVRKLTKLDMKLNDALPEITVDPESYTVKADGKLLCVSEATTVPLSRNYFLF
Sequence of urease (P07374 whole entry, looked up): as above

Regarding `NC(N)=O` [urea], the Km was 2350 ± 30 µM in assay [1] (setting [3]); 1900 ± 100 µM in assay [1] (sol-gel microarray); 1300 ± 200 µM in assay [1] (solution, platereader); 2900 µM on urease (urease, literature). In addition, the kcat in assay [1] (setting [3]) was determined as 1.33 ± 0.02 s⁻¹; in assay [1] (sol-gel microarray), 1.1 ± 0.1 s⁻¹; in assay [1] (solution, platereader), 78 ± 2 s⁻¹. For the same compound, the “kcat of entrapped protein lower than in solution” value in assay [1] (urease, entrapped vs solution) is “up to 70 fold”.
Consider `N=C(N)N` [guanidine hydrochloride], for which the “increase in fluorescence of CaM-Mel columns” value in assay [2] (GdHCl 2M added to top of array, imaging every 20 s) is given as “over 2 fold”. Further, the “effect on CaM-melittin complex / fluorescence intensity” value in assay [2] is “the complex was dissociated”.
On to `N=C(N)c1ccccc1` [benzamidine], for which the “effect on CaM-melittin complex / fluorescence intensity” value in assay [2] is given as “no changes in intensity above that obtained for CaM alone”.
`NC(N)=S` [thiourea]: the Ki in assay [1] (urease entrapped in bulk sodium silicate glass, platereader) is 54 ± 2 mM; in assay [1] (urease sol-gel microarray), 62 ± 7 mM; on urease (urease in solution, literature range, different pH values (5.5 to 8)) it was 48 to 85 mM.
